The text below walks through data of patent publication US9982265B2, “Inhibition of Bruton's tyrosine kinase (Btk) in the lung to treat severe lung inflammation and lung injury” (BOARD OF REGENTS, THE UNIVERSITY OF TEXAS SYSTEM, priority 2014, dated 2018).

One data set deals with alveolar neutrophils. The experiment in a line: Uptake of alveolar neutrophils by mouse spleen macrophages (co-culture 1 h). It is filed as cell-based. Conditions: neutrophils from treated LPS/IC ALI mice versus ALI; FIG. 5B. The procedure:
Neutrophil Apoptosis/Uptake: Purified alveolar neutrophils were evaluated for the presence of cleaved caspase 3 as done routinely in our laboratory (13). Cells mounted on cytospins were incubated with anti-mouse cleaved caspase 3 antibody (Cell Signaling Technology, Danvers, Mass.), followed by dye-conjugated secondary antibody. Fluorescence intensity of cleaved caspase 3 was analyzed as described above. In addition, alveolar neutrophils were co-cultured with mouse spleen macrophages for 1 h (43, 44), and percentage of phagocytosed neutrophils was calculated. In separate sets of experiments bone marrow neutrophils (BMPMNs) were purified according to the previously published protocol (54) and cultivated for 24 h to induce spontaneous apoptosis. Some cells were cultured in the presence of LPS and anti-KC:KC immune complexes. In other experiments, BMPMNs were treated with siRNA specific for Btk (Santa Cruz Biotechnology) conjugated to F(ab′)2 fragments of the Ly6G1A8 antibody. Similarly conjugated control siRNA (Santa Cruz Biotechnology) or F(ab′)2 fragments of the Ly6G1A8 alone served as controls.
In other experiments, purified alveolar neutrophils were co-cultured with mouse spleen macrophages for 1 h, and the percentage of phagocytosed neutrophils was assessed by counting numbers of neutrophils present inside macrophages. […]

A further data set has as its system thrombomodulin (TM). The experiment in a line: Thrombomodulin in BAL fluid by Western blot, flu induced ALI. It is filed as in vivo, mice. Conditions: FIG. 13. (In general: A western blot detects proteins with antibodies after separation by electrophoresis.)
Data set [1] has as its system mice with LPS/IC induced ALI. The experiment in a line: Two hit model of LPS/IC induced acute lung injury, Lung Injury Score from pulmonary histopathology. It is filed as in vivo. The note with it: Table 5; intranasal treatment after LPS, before ICs; samples 14 h after IC; score 0 to 2; means ± SD, 4-5 animals per group. The procedure:
BALB/c mice (Taconic Germantown, N.Y.) were first injected intraperitoneally (i.p.) with either LPS or saline and 8 h later received anti-KC:KC immune complexes or saline (control) by intranasal (i.n.) route. Anti-KC:KC immune complexes were prepared according to the protocol routinely used in our laboratory (28). Some mice received Btk specific siRNA intranasally. In other experiments the animals were treated i.n. with siRNA specific for Btk (see SEQ ID NOs:18-25) or MMP-9 (Invitrogen), both conjugated (T3™-MAX Conjugation Kit (Bioo Scientific Corporation, Austin, Tex.) to F(ab′)2 fragments of anti-mouse neutrophil antibody Ly-6G1A8). F(ab′)2 fragments alone or conjugated to control siRNA (SEQ ID NO's 26 and 27) (Invitrogen) served as controls of the treatment. Two or fourteen hours after i.n. administration of either immune complexes or saline, the animals were euthanized and samples collected for further evaluation. To study role of neutrophil FcγRIII receptors neutrophils were first depleted by i.p. injection of vinblastine (31) followed by adoptive transfer of cells deficient in FcγRIII receptors prepared as described below. […] Lung dysfunction was assessed by analysis of pulmonary histopathology.
Pulmonary Histopathology: Lungs were fixed in ExCellPlus (AMTS, Lodi, Calif.), embedded in paraffin, and sectioned at 5 μm. […] The images of stained sections were evaluated for the presence of alveolar exudate, infiltration of inflammatory cells, and interstitial thickening. Lung Injury Score (LIS) was assessed as described earlier (28). Most images were assessed at magnification of over 400×. […] At the minimum twenty sections from each group of mice were evaluated and 4 investigators participated in the analysis of 50 or more fields per group. According to recommendation of “An Official American Thoracic Society Workshop Report: Features and Measurements of Experimental Acute Lung Injury in Animals” (Am J Respir Cell Mol Biol 44 725-738, 2011) more than 20 high power fields were independently scored (as described above) and at least 50% of each field was occupied by lung alveoli. […]

For the substance “Cont siRNA: control siRNA #8 (SEQ ID NO:26/27) conjugated to F(ab′)2 fragments of Ly6G1A8 (chain 1 UUCCUCUCCACGCGCAGUACAUUUA; chain 2 AAGGAGAGGUGCGCGUCAUGUAAAU; conjugated to antibody F(ab')2 fragment, attachment not given here; one strand is listed 3' to 5')”, the “uptake (phagocytosis) of apoptotic alveolar neutrophils by macrophages” value in the data set with alveolar neutrophils is listed as “no effect”. The “levels of TM in BAL fluid” value in the data set on thrombomodulin (TM) was “significantly increased levels”. Besides, in data set [1], the “Lung Injury Score: Edema fluid” value is 1.337 ± 0.170, the “Lung Injury Score: Inflammatory infiltration” value was found to be 1.824 ± 0.141 and the “Lung Injury Score: Thickening of alveolar septa” value worked out at 1.607 ± 0.276.
